Earlier results as cited in US20170327462A1, “(Z)-3,4,5-TRIMETHOXYSTYRYLBENZENESULFONAMIDES AS POTENTIAL ANTICANCER AGENTS” (COUNCIL OF SCIENTIFIC & INDUSTRIAL RESEARCH, priority 2014, published 2017).

System: tubulin
Conditions: binding at colchicine binding site; J. Med. Chem. 2008, 51, 6211; cited from earlier work

**Q.** Which “inhibition of tubulin polymerization relative to CA-4” value does the source give for COc1cc(/C=C\c2ccc(OC)c(N)c2)cc(OC)c1 [(Z)-5-(3,5-dimethoxystyryl)-2-methoxyaniline] here?
**A.** five times stronger than CA-4
